Results as given in US20170356126A1, “LIQUID FILM CLEAVAGE AGENT” (Kao Corporation, priority 2014, published 2017).

Experimental: Further, the water solubility is considered to be applied also to menstrual blood, urine or the like which contains water as a main component.
Specifically, the agent is added for every 0.0001 g, and the measurement is performed.
These numerical values were measured by the above-mentioned measuring method. […] Moreover, the water solubility was measured by adding the agent for every 0.0001 g.

Water solubility of the above agent: 0.0001 g
Substance: dimethyl silicone oil [Comparative Example 2, reference compound]
